Test results: PubChem BioAssay (NCI)
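Tested at 5 concentrations; 48 h exposure; 96-well plates; endpoints linearly interpolated, else capped at highest concentration. GI50 marks 50% less growth. At the TGI there is no net growth.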

Tests used:
Experiment in all cases: DTP human tumour cell line panel, 48 h
[1] = system: 786-0 renal
[2] = system: A498 renal
[3] = system: A549 NSCLC
[4] = system: ACHN renal
[5] = system: BT-549 breast
[6] = system: CAKI-1 renal
[7] = system: CCRF-CEM leukemia
[8] = system: COLO 205 colon
[9] = system: DU-145 prostate
[10] = system: EKVX NSCLC
[11] = system: HCC-2998 colon
[12] = system: HCT-116 colon
[13] = system: HCT-15 colon
[14] = system: HL-60(TB) leukemia
[15] = system: HOP-62 NSCLC
[16] = system: HOP-92 NSCLC
[17] = system: HS 578T breast
[18] = system: HT29 colon
[19] = system: IGROV1 ovarian
[20] = system: K-562 leukemia
[21] = system: KM12 colon
[22] = system: LOX IMVI melanoma
[23] = system: M14 melanoma
[24] = system: MALME-3M melanoma
[25] = system: MCF7 breast
[26] = system: MDA-MB-231 breast
[27] = system: MDA-MB-435
[28] = system: MOLT-4 leukemia
[29] = system: NCI-H226 lung
[30] = system: NCI-H23 lung
[31] = system: NCI-H460 lung
[32] = system: NCI-H522 lung
[33] = system: NCI/ADR-RES ovarian
[34] = system: OVCAR-3 ovarian
[35] = system: OVCAR-4 ovarian
[36] = system: OVCAR-5 ovarian
[37] = system: OVCAR-8 ovarian
[38] = system: PC-3 prostate
[39] = system: RPMI-8226 leukemia
[40] = system: RXF 393 renal
[41] = system: SF-268 CNS
[42] = system: SF-295 CNS
[43] = system: SF-539 CNS
[44] = system: SK-MEL-2 melanoma
[45] = system: SK-MEL-28 melanoma
[46] = system: SK-MEL-5 melanoma
[47] = system: SK-OV-3 ovarian
[48] = system: SN12C renal
[49] = system: SNB-19 CNS
[50] = system: SW-620 colon
[51] = system: T-47D breast
[52] = system: TK-10 renal
[53] = system: U251 CNS
[54] = system: UACC-257 melanoma
[55] = system: UACC-62 melanoma
[56] = system: UO-31 renal

CCOc1cc2ncc(C#N)c(Nc3ccc(F)c(Cl)c3)c2cc1NC(=O)CC1CCSS1 (configuration not stated)
GI50 [1]: 1840 nM | TGI [1]: 12900 nM | GI50 [2]: 3050 nM | TGI [2]: 11400 nM | GI50 [3]: 616 nM | TGI [3]: 1160 nM | GI50 [4]: 429 nM | TGI [4]: 1150 nM | GI50 [5]: 1500 nM | TGI [5]: 7460 nM | GI50 [6]: 979 nM | TGI [6]: 4590 nM | GI50 [7]: 792 nM | TGI [7]: 2060 nM | GI50 [8]: 982 nM | TGI [8]: 3390 nM | GI50 [9]: 580 nM | TGI [9]: 1280 nM | GI50 [10]: 476 nM | TGI [10]: 1930 nM | GI50 [11]: 569 nM | TGI [11]: 1100 nM | GI50 [12]: 630 nM | TGI [12]: 1270 nM | GI50 [13]: 649 nM | TGI [13]: 1700 nM | GI50 [14]: 930 nM | TGI [14]: 4000 nM | GI50 [15]: 533 nM | TGI [15]: 1160 nM | GI50 [16]: 3240 nM | TGI [16]: 13700 nM | GI50 [17]: 1390 nM | TGI [17]: 11700 nM | GI50 [18]: 603 nM | TGI [18]: 1200 nM | GI50 [19]: 392 nM | TGI [19]: 1630 nM | GI50 [20]: 881 nM | TGI [20]: 2290 nM | GI50 [21]: 563 nM | TGI [21]: 1130 nM | GI50 [22]: 579 nM | TGI [22]: 1170 nM | GI50 [23]: 572 nM | TGI [23]: 1330 nM | GI50 [24]: 1640 nM | TGI [24]: 6410 nM | GI50 [25]: 694 nM | TGI [25]: 1900 nM | GI50 [26]: 833 nM | TGI [26]: 2000 nM | GI50 [27]: 597 nM | TGI [27]: 1230 nM | GI50 [28]: 748 nM | TGI [28]: 1890 nM | GI50 [29]: 2110 nM | TGI [29]: 7400 nM | GI50 [30]: 1120 nM | TGI [30]: 4550 nM | GI50 [31]: 676 nM | TGI [31]: 1410 nM | GI50 [32]: 786 nM | TGI [32]: 4700 nM | GI50 [33]: 751 nM | TGI [33]: 2040 nM | GI50 [34]: 717 nM | TGI [34]: 2080 nM | GI50 [35]: 663 nM | TGI [35]: 2350 nM | GI50 [36]: 2100 nM | TGI [36]: 13500 nM | GI50 [37]: 809 nM | TGI [37]: 1920 nM | GI50 [38]: 629 nM | TGI [38]: 1210 nM | GI50 [39]: 1640 nM | TGI [39]: 33300 nM | GI50 [40]: 1130 nM | TGI [40]: 3970 nM | GI50 [41]: 740 nM | TGI [41]: 2230 nM | GI50 [42]: 1650 nM | TGI [42]: 6670 nM | GI50 [43]: 5000 nM | TGI [43]: 17400 nM | GI50 [44]: 697 nM | TGI [44]: 2000 nM | GI50 [45]: 659 nM | TGI [45]: 1530 nM | GI50 [46]: 3240 nM | TGI [46]: 7230 nM | GI50 [47]: 509 nM | TGI [47]: 990 nM | GI50 [48]: 880 nM | TGI [48]: 2500 nM | GI50 [49]: 1980 nM | TGI [49]: 12300 nM | GI50 [50]: 1040 nM | TGI [50]: 3570 nM | GI50 [51]: 1380 nM | TGI [51]: 6920 nM | GI50 [52]: 556 nM | TGI [52]: 1480 nM | GI50 [53]: 1100 nM | TGI [53]: 3460 nM | GI50 [54]: 1960 nM | TGI [54]: 6920 nM | GI50 [55]: 1970 nM | TGI [55]: 7280 nM | GI50 [56]: 395 nM | TGI [56]: 955 nM
